Where “and” joins values, the source holds several entries; their conditions need not be identical. Equal entries are not always repeated.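 Each compound was tested at five concentrations against cells in 96-well plates for 48 hours. GI50 marks 50% less growth. TGI: concentration producing complete growth inhibition.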

The source of these data is PubChem BioAssay (NCI).

Some test systems named below: COLO 205 colon; NCI-H226 lung; NCI-H23 lung; SF-539 CNS; SK-OV-3 ovarian; RPMI-8226 leukemia; 786-0 renal; OVCAR-5 ovarian; A498 renal; UO-31 renal.
Common to all, as to test: NCI-60 cell line screen, 48 h

Take `Cc1ccc(S(=O)(=O)SC/C=C\CSS(=O)(=O)c2ccc(C)cc2)cc1`: the GI50 was 8.94 µM and 18.8 µM with COLO 205 colon; 7 µM and 17.2 µM in the test with SF-539 CNS; > 78.5 µM and 30 µM in the test with OVCAR-5 ovarian. The TGI in the test with COLO 205 colon is 33.1 µM and 33.6 µM; with NCI-H226 lung, 71.5 µM and 55.2 µM; in the test on NCI-H23 lung it was 73.9 µM and 34.7 µM; in the test on SF-539 CNS it was 43.6 µM and 33.3 µM; with SK-OV-3 ovarian, 98.9 µM and 83.2 µM; in the test with RPMI-8226 leukemia, 16.5 µM and 47 µM. Besides, the TGI with 786-0 renal was > 66.2 µM and 32.3 µM; in the test on OVCAR-5 ovarian, greater than 100 µM; in the test with A498 renal, greater than 100 µM; in the test with UO-31 renal, greater than 100 µM.

On to `CC(=O)Nc1ccc(-c2cc(C(=O)O)c3cc4ccccc4cc3n2)cc1`, for which the TGI with COLO 205 colon, with NCI-H226 lung, in the test on NCI-H23 lung, with SF-539 CNS, in the test with SK-OV-3 ovarian and in the test with RPMI-8226 leukemia was greater than 100 µM each time. Further, the TGI in the test on 786-0 renal, in the test with OVCAR-5 ovarian and in the test on A498 renal was greater than 100 µM each time.

For the molecule `CC(=O)c1c(O)c(C)c(O)c(Cc2c(O)c3c(c(C(=O)/C=C/c4ccccc4)c2O)OC(C)(C)C=C3)c1O`, the TGI with COLO 205 colon is 3.95 µM; with NCI-H226 lung it was 23 µM; with NCI-H23 lung, 14 µM; in the test on SF-539 CNS, 26.5 µM; in the test on SK-OV-3 ovarian it was 15.1 µM; in the test with RPMI-8226 leukemia it was greater than 100 µM. Also, the TGI in the test on 786-0 renal was 18.7 µM; in the test on OVCAR-5 ovarian, 22.4 µM; in the test on A498 renal, 6.71 µM; with UO-31 renal, 8.19 µM.

With `COc1cc(C)ccc1C(=O)c1ccc(C)cc1OC`, the GI50 was 2.55 µM in the test on COLO 205 colon; 4.45 µM in the test on NCI-H226 lung; 6.31 µM in the test on NCI-H23 lung; 2.66 µM in the test with SF-539 CNS; 2.66 µM with SK-OV-3 ovarian; 3.7 µM in the test with RPMI-8226 leukemia. Also, the GI50 was 6.29 µM in the test on 786-0 renal, 7.02 µM with OVCAR-5 ovarian, 1.24 µM with A498 renal and 5.74 µM in the test on UO-31 renal. Further, the TGI in the test on COLO 205 colon is 9.34 µM; in the test with NCI-H226 lung it was 72.7 µM; in the test with NCI-H23 lung, greater than 100 µM; with SF-539 CNS, 20.6 µM; in the test with SK-OV-3 ovarian it was 14.1 µM; in the test on RPMI-8226 leukemia, 27.7 µM. Besides, the TGI in the test on 786-0 renal is greater than 100 µM; in the test on OVCAR-5 ovarian it was greater than 100 µM; with A498 renal it was 39.6 µM; with UO-31 renal it was greater than 100 µM.

On to `O=C(Oc1cccnc1)c1cccnc1Nc1ccnc(C(F)(F)F)c1`, for which the GI50 was 27.4 µM in the test on COLO 205 colon; 12.3 µM in the test with NCI-H226 lung; 6.38 µM in the test with NCI-H23 lung; greater than 100 µM with SK-OV-3 ovarian; 3.94 µM with RPMI-8226 leukemia; 5.17 µM with 786-0 renal. In addition, the GI50 in the test on OVCAR-5 ovarian was 72.8 µM; in the test with A498 renal, 19.6 µM; in the test on UO-31 renal it was 10 µM. In addition, the TGI is 72.4 µM with COLO 205 colon; 71.4 µM in the test on NCI-H226 lung; greater than 100 µM in the test on NCI-H23 lung; greater than 100 µM in the test on SK-OV-3 ovarian; 23.7 µM in the test on RPMI-8226 leukemia; 22.4 µM in the test with 786-0 renal. Further, the figures for the TGI in the test with OVCAR-5 ovarian, in the test with A498 renal and in the test on UO-31 renal were greater than 100 µM, 41 µM and 81.5 µM, respectively.

For `COc1ccc2c(c1)C(=O)/C(=C/c1cccc(OCC(=O)c3ccccc3)c1)CC2`, the GI50 with COLO 205 colon was 88.5 µM; in the test on NCI-H226 lung, 28.6 µM; in the test on NCI-H23 lung it was 18.9 µM; with SF-539 CNS, 64.7 µM; in the test on SK-OV-3 ovarian, 62.9 µM; in the test with RPMI-8226 leukemia, 2.31 µM. In addition, the GI50 in the test on 786-0 renal was 54.4 µM; with OVCAR-5 ovarian, greater than 100 µM; with A498 renal, 17.3 µM; in the test with UO-31 renal, 29.2 µM. Besides, the TGI is greater than 100 µM in the test with COLO 205 colon; greater than 100 µM with NCI-H226 lung; greater than 100 µM in the test with NCI-H23 lung; greater than 100 µM in the test with SF-539 CNS; greater than 100 µM in the test on SK-OV-3 ovarian; 5.91 µM in the test with RPMI-8226 leukemia. Also, the TGI in the test with 786-0 renal was greater than 100 µM; in the test with OVCAR-5 ovarian, greater than 100 µM; in the test on A498 renal, 80.8 µM; with UO-31 renal, greater than 100 µM.

Turning to `Clc1ccc(-c2cn3ccnc3c(-c3ccc(Cl)cc3)n2)cc1`, the GI50 with COLO 205 colon was 27.6 µM; in the test on NCI-H226 lung it was 40.8 µM; with NCI-H23 lung, 24.3 µM; with SF-539 CNS, 26.2 µM; in the test on SK-OV-3 ovarian, 82.8 µM; in the test with RPMI-8226 leukemia, 10.1 µM. Also, the results for the GI50 with 786-0 renal, in the test with OVCAR-5 ovarian and with A498 renal were 29.5 µM, 32.9 µM and 30.7 µM, respectively. The TGI in the test on COLO 205 colon was greater than 100 µM; with NCI-H226 lung, greater than 100 µM; in the test on NCI-H23 lung, 80.1 µM; in the test on SF-539 CNS it was greater than 100 µM; in the test with SK-OV-3 ovarian, greater than 100 µM; in the test with RPMI-8226 leukemia, greater than 100 µM. Further, the results for the TGI in the test on 786-0 renal, in the test with OVCAR-5 ovarian and with A498 renal were greater than 100 µM, greater than 100 µM and 77.2 µM, respectively.

As to `CCc1cccc(C)c1NS(=O)(=O)c1ccccc1`, the TGI with NCI-H226 lung, with NCI-H23 lung, in the test with SF-539 CNS, with SK-OV-3 ovarian, in the test on RPMI-8226 leukemia and in the test with 786-0 renal was greater than 100 µM throughout. In addition, the TGI in the test with OVCAR-5 ovarian, in the test on A498 renal and in the test on UO-31 renal was greater than 100 µM in each case.

As to `CCSC1=NC2C(N(CC)C(=O)N2CC)N1/N=C/C=C/c1ccccc1[N+](=O)[O-]` (centres undefined), the GI50 in the test on NCI-H226 lung was 0.381 µM; in the test on NCI-H23 lung, 0.351 µM; with SF-539 CNS it was 0.0804 µM; in the test with SK-OV-3 ovarian it was 0.329 µM; in the test with RPMI-8226 leukemia, 0.334 µM; with 786-0 renal it was 0.405 µM. In addition, the GI50 is 0.426 µM in the test with OVCAR-5 ovarian, 0.0283 µM with A498 renal and 0.664 µM in the test on UO-31 renal. Moreover, the TGI in the test on NCI-H226 lung was greater than 100 µM; in the test with NCI-H23 lung it was greater than 100 µM; in the test with SF-539 CNS, 0.736 µM; with SK-OV-3 ovarian, greater than 100 µM; in the test with RPMI-8226 leukemia, greater than 34.1 µM; in the test with 786-0 renal it was greater than 100 µM. Besides, the TGI in the test with OVCAR-5 ovarian was greater than 100 µM; in the test on A498 renal, 0.209 µM; in the test with UO-31 renal it was greater than 100 µM.

For the molecule `Cc1c(OC(C)C(=O)O)ccc2c(-c3ccccc3)cc(=O)oc12` (centres undefined), the TGI in the test on COLO 205 colon, in the test on NCI-H226 lung, in the test with NCI-H23 lung, with SF-539 CNS, in the test on SK-OV-3 ovarian and in the test on RPMI-8226 leukemia was greater than 100 µM each time. In addition, the TGI with 786-0 renal, in the test with A498 renal and with UO-31 renal was greater than 100 µM throughout.
